Measurements from US10493159B2, “Protein transduction domains mimics” (University of Massachusetts, priority 2010, dated 2019).

Experiment: Transport activity, carboxyfluorescein release from vesicles, Hill analysis
Settings: EYPC⊃CF vesicles, no counterion activator
Method: Transport activities for these novel PTDMs were determined using the standard biophysical assay well documented in the CPP literature. (Hennig, et al. 2008 J. Am. Chem. Soc. 130, 10338.) Specifically, 5(6)-carboxyfluorescein (CF) was used as a fluorescent probe in egg yolk phosphatidylcholine large unilamellar vesicles (EYPC-LUVs). The activity of these transporters increased with increasing polymer concentration at a constant vesicle concentration as detected by CF emission intensity, yielding plots of fluorescence intensity versus polymer concentration (FIG. 42, FIG. 43). […] (Sakai, et al. 2003 J. Am. Chem. Soc. 125, 14348; Sakai, et al. 2006 Soft Matter 2, 636; Sakai, et al. 2005 Chembiochem 6, 114; Hennig, et al. 2008 J. Am. Chem. Soc. 130, 10338; Nishihara, et al. 2005 Org. Biomol. Chem., 3, 1659; Perret, et al. 2005 J. Am. Chem. Soc. 127, 1114.) This analysis gave Ymax (maximal CF release relative to complete release by Triton X-100), EC50 (effective polymer concentration needed to reach Ymax/2), and the Hill coefficient n (see Table 2).
Preparation of EYPC-LUVs⊃CF. […]
Polymer Activity in EYPC-LUVs⊃CF. […] The time-dependent change in fluorescence intensity It (λex=492 nm, λem=517 nm) was monitored during the addition of polymer (20 μL stock solution in DMSO) at t=100 s, and addition of 40 μl 1.2% (aq.) triton X-100 at the end of every experiment (t=900 s) (FIG. 42). […]

## polyarginine
  transport activity: inactive
